These results are taken from PubChem BioAssay AID624384 (Sanford-Burnham Center for Chemical Genomics, 2012).

Activity calls are given as the source filed them. How the calls were made is not given here.

The test deals with Small ubiquitin-related modifier 2 (Homo sapiens) (UniProt P61956). The test can be described thus: inhibitors of SUMO2 protein-protein interaction, dose response, selectivity assay for SUMO1 interaction inhibitor project, biochemical, FRET, human SUMO2, uHTS hits (AID 624384).
Sequence of Small ubiquitin-related modifier 2 (Homo sapiens) (P61956 whole entry, looked up): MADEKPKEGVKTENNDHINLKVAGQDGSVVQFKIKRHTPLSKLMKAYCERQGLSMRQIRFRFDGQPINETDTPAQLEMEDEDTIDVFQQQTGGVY

`C[c-]1[c-](C)[c-](C)[c-](C)[c-]1C.[Fe].c1cc2nccc(N3CCCC3)[c-]2c1` (stereo unspecified): the IC50 – broadly, the midpoint of a concentration-inhibition curve – is > 66 µM (inactive).
